Assay results: PubChem BioAssay AID2060512 (Molecular Pharmacology Branch, DTP, NCI, 2025)

Tested on: 186277-243-T-J2-PDC complex spheroid viability
Test: Anticancer human tumor 186277-243-T-J2-PDC patient-derived colon adenocarcinoma cell line growth inhibition [GQUAD]
Conditions: for IC50: curve of first compound; for viability, T/C: stronger effect = lower value
Procedure, shortened: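 Tumor cells were grown as complex spheroids with HUVEC endothelial cells and mesenchymal stem cells as stroma. G-quadruplex stabilizers were combined with targeted agents over half-log dilutions from near the clinical Cmax, or from 10 microM.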

[1] = second compound 0.0316 µM, first compound 0.0316 µM
[2] = second compound 0.0316 µM, first compound 0.316 µM
[3] = second compound 0.1 µM, first compound 0.0316 µM
[4] = second compound 0.1 µM, first compound 0.316 µM
[5] = second compound 0.316 µM, first compound 0.0316 µM
[6] = second compound 0.316 µM, first compound 0.316 µM
[7] = second compound 1 µM, first compound 0.0316 µM
[8] = second compound 1 µM, first compound 0.316 µM
[9] = second compound 3.16 µM, first compound 0.0316 µM
[10] = second compound 3.16 µM, first compound 0.316 µM
[11] = second compound 10 µM, first compound 0.0316 µM
[12] = second compound 10 µM, first compound 0.316 µM
[13] = second compound 0.0316 µM, first compound 0.1 µM
[14] = second compound 0.0316 µM, first compound 1 µM
[15] = second compound 0.0316 µM, first compound 3.16 µM
[16] = second compound 0.0316 µM, first compound 10 µM
[17] = second compound 0.1 µM, first compound 0.1 µM
[18] = second compound 0.1 µM, first compound 1 µM
[19] = second compound 0.1 µM, first compound 3.16 µM
[20] = second compound 0.1 µM, first compound 10 µM
[21] = second compound 0.316 µM, first compound 0.1 µM
[22] = second compound 0.316 µM, first compound 1 µM
[23] = second compound 0.316 µM, first compound 3.16 µM
[24] = second compound 0.316 µM, first compound 10 µM
[25] = second compound 1 µM, first compound 0.1 µM
[26] = second compound 1 µM, first compound 1 µM
[27] = second compound 1 µM, first compound 3.16 µM
[28] = second compound 1 µM, first compound 10 µM
[29] = second compound 3.16 µM, first compound 0.1 µM
[30] = second compound 3.16 µM, first compound 1 µM
[31] = second compound 3.16 µM, first compound 3.16 µM
[32] = second compound 3.16 µM, first compound 10 µM
[33] = second compound 10 µM, first compound 0.1 µM
[34] = second compound 10 µM, first compound 1 µM
[35] = second compound 10 µM, first compound 3.16 µM
[36] = second compound 10 µM, first compound 10 µM
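Further: spheroids exposed to drugs for 7 days.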
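Wherever viability, T/C is given: 100% = DMSO vehicle control viability.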

Compound: CC[C@@]1(O)C(=O)OCc2c1cc1n(c2=O)Cc2cc3c(CN(C)C)c(O)ccc3nc2-1 + CN(C)c1ccc(Nc2c3ccc(NC(=O)CCN4CCCC4)cc3nc3cc(NC(=O)CCN4CCCC4)ccc23)cc1
- IC50 (second compound 0.0316 µM): > 316 nM
- IC50 (second compound 0.1 µM): 153 nM
- IC50 (second compound 0.316 µM): 178 nM
- IC50 (second compound 1 µM): 206 nM
- IC50 (second compound 3.16 µM): 209 nM
- IC50 (second compound 10 µM): 252 nM
- viability, T/C (second compound 0.0316 µM, first compound 0.000999 µM): 91.1%
- viability, T/C (second compound 0.0316 µM, first compound 0.00316 µM): 115%
- viability, T/C (second compound 0.0316 µM, first compound 0.00999 µM): 99.2%
- viability, T/C [1]: 88.3%
- viability, T/C (second compound 0.0316 µM, first compound 0.0999 µM): 54.4%
- viability, T/C [2]: 50.1%
- viability, T/C (second compound 0.1 µM, first compound 0.000999 µM): 91.5%
- viability, T/C (second compound 0.1 µM, first compound 0.00316 µM): 104%
- viability, T/C (second compound 0.1 µM, first compound 0.00999 µM): 92.5%
- viability, T/C [3]: 70.9%
- viability, T/C (second compound 0.1 µM, first compound 0.0999 µM): 61.1%
- viability, T/C [4]: 36.9%
- viability, T/C (second compound 0.316 µM, first compound 0.000999 µM): 93.9%
- viability, T/C (second compound 0.316 µM, first compound 0.00316 µM): 102%
- viability, T/C (second compound 0.316 µM, first compound 0.00999 µM): 95.6%
- viability, T/C [5]: 81.4%
- viability, T/C (second compound 0.316 µM, first compound 0.0999 µM): 59.4%
- viability, T/C [6]: 41.2%
- viability, T/C (second compound 1 µM, first compound 0.000999 µM): 86.5%
- viability, T/C (second compound 1 µM, first compound 0.00316 µM): 81.7%
- viability, T/C (second compound 1 µM, first compound 0.00999 µM): 87.1%
- viability, T/C [7]: 72%
- viability, T/C (second compound 1 µM, first compound 0.0999 µM): 65.6%
- viability, T/C [8]: 41.2%
- viability, T/C (second compound 3.16 µM, first compound 0.000999 µM): 96.8%
- viability, T/C (second compound 3.16 µM, first compound 0.00316 µM): 99.5%
- viability, T/C (second compound 3.16 µM, first compound 0.00999 µM): 105%
- viability, T/C [9]: 74.4%
- viability, T/C (second compound 3.16 µM, first compound 0.0999 µM): 65.2%
- viability, T/C [10]: 42.5%
- viability, T/C (second compound 10 µM, first compound 0.000999 µM): 93.8%
- viability, T/C (second compound 10 µM, first compound 0.00316 µM): 85.7%
- viability, T/C (second compound 10 µM, first compound 0.00999 µM): 98%
- viability, T/C [11]: 85.1%
- viability, T/C (second compound 10 µM, first compound 0.0999 µM): 58.3%
- viability, T/C [12]: 47.9%

Compound: COc1cc(C2c3cc4c(cc3C(OC3OC5COC(C)OC5C(O)C3O)C3COC(=O)C23)OCO4)cc(OC)c1O (stereo not drawn) + CN(C)c1ccc(Nc2c3ccc(NC(=O)CCN4CCCC4)cc3nc3cc(NC(=O)CCN4CCCC4)ccc23)cc1
- IC50 (second compound 0.0316 µM): 767 nM
- IC50 (second compound 0.1 µM): 757 nM
- IC50 (second compound 0.316 µM): 915 nM
- IC50 (second compound 1 µM): 808 nM
- IC50 (second compound 3.16 µM): 1340 nM
- IC50 (second compound 10 µM): 1460 nM
- viability, T/C [1]: 112%
- viability, T/C [13]: 99.4%
- viability, T/C [2]: 74.2%
- viability, T/C [14]: 38.9%
- viability, T/C [15]: 35%
- viability, T/C [16]: 18.6%
- viability, T/C [3]: 91.5%
- viability, T/C [17]: 94.5%
- viability, T/C [4]: 72.3%
- viability, T/C [18]: 40.4%
- viability, T/C [19]: 34.6%
- viability, T/C [20]: 18.6%
- viability, T/C [5]: 113%
- viability, T/C [21]: 96.7%
- viability, T/C [6]: 80.5%
- viability, T/C [22]: 42.8%
- viability, T/C [23]: 31.7%
- viability, T/C [24]: 15.6%
- viability, T/C [7]: 105%
- viability, T/C [25]: 107%
- viability, T/C [8]: 74.6%
- viability, T/C [26]: 42.9%
- viability, T/C [27]: 32.9%
- viability, T/C [28]: 17.5%
- viability, T/C [9]: 115%
- viability, T/C [29]: 102%
- viability, T/C [10]: 81.1%
- viability, T/C [30]: 49.6%
- viability, T/C [31]: 39.9%
- viability, T/C [32]: 16%
- viability, T/C [11]: 107%
- viability, T/C [33]: 74.5%
- viability, T/C [12]: 88.6%
- viability, T/C [34]: 50.9%
- viability, T/C [35]: 37.2%
- viability, T/C [36]: 15.5%

Compound: COc1cccc2c1C(=O)c1c(O)c3c(c(O)c1C2=O)CC(O)(C(=O)CO)CC3OC1CC(N)C(O)C(C)O1 (stereo not drawn) + CN(C)c1ccc(Nc2c3ccc(NC(=O)CCN4CCCC4)cc3nc3cc(NC(=O)CCN4CCCC4)ccc23)cc1
- IC50 (second compound 0.0316 µM): 390 nM
- IC50 (second compound 0.1 µM): 369 nM
- IC50 (second compound 0.316 µM): 311 nM
- IC50 (second compound 1 µM): 280 nM
- IC50 (second compound 3.16 µM): 380 nM
- IC50 (second compound 10 µM): 438 nM
- viability, T/C [1]: 109%
- viability, T/C [13]: 94.3%
- viability, T/C [2]: 59.1%
- viability, T/C [14]: 14.6%
- viability, T/C [15]: 0.22%
- viability, T/C [16]: 0.33%
- viability, T/C [3]: 96.2%
- viability, T/C [17]: 93.8%
- viability, T/C [4]: 54.8%
- viability, T/C [18]: 13%
- viability, T/C [19]: 0.14%
- viability, T/C [20]: 0.11%
- viability, T/C [5]: 107%
- viability, T/C [21]: 78.9%
- viability, T/C [6]: 53.6%
- viability, T/C [22]: 19.4%
- viability, T/C [23]: 0.17%
- viability, T/C [24]: 0.49%
- viability, T/C [7]: 105%
- viability, T/C [25]: 88.9%
- viability, T/C [8]: 43.2%
- viability, T/C [26]: 16.6%
- viability, T/C [27]: 0.37%
- viability, T/C [28]: 0.6%
- viability, T/C [9]: 109%
- viability, T/C [29]: 91%
- viability, T/C [10]: 56.4%
- viability, T/C [30]: 19.8%
- viability, T/C [31]: 0.3%
- viability, T/C [32]: 0.16%
- viability, T/C [11]: 97.7%
- viability, T/C [33]: 81.6%
- viability, T/C [12]: 63.5%
- viability, T/C [34]: 21.9%
- viability, T/C [35]: 1.2%
- viability, T/C [36]: 0.25%

Compound: Nc1ccn(C2OC(CO)C(O)C2(F)F)c(=O)n1 (stereo not drawn) + CN(C)c1ccc(Nc2c3ccc(NC(=O)CCN4CCCC4)cc3nc3cc(NC(=O)CCN4CCCC4)ccc23)cc1
- IC50 (second compound 0.0316 µM): < 31.6 nM
- IC50 (second compound 0.1 µM): < 31.6 nM
- IC50 (second compound 0.316 µM): < 31.6 nM
- IC50 (second compound 1 µM): < 31.6 nM
- IC50 (second compound 3.16 µM): < 31.6 nM
- IC50 (second compound 10 µM): < 31.6 nM
- viability, T/C [1]: 10.1%
- viability, T/C [13]: 9.64%
- viability, T/C [2]: 9.07%
- viability, T/C [14]: 7.19%
- viability, T/C [15]: 8.19%
- viability, T/C [16]: 8.56%
- viability, T/C [3]: 10.4%
- viability, T/C [17]: 7.92%
- viability, T/C [4]: 8%
- viability, T/C [18]: 7.8%
- viability, T/C [19]: 8.64%
- viability, T/C [20]: 8.31%
- viability, T/C [5]: 10.9%
- viability, T/C [21]: 7.8%
- viability, T/C [6]: 7.03%
- viability, T/C [22]: 7%
- viability, T/C [23]: 8.54%
- viability, T/C [24]: 8.47%
- viability, T/C [7]: 8.71%
- viability, T/C [25]: 7.38%
- viability, T/C [8]: 6.7%
- viability, T/C [26]: 6.93%
- viability, T/C [27]: 8.1%
- viability, T/C [28]: 7.47%
- viability, T/C [9]: 8.12%
- viability, T/C [29]: 7.76%
- viability, T/C [10]: 7.81%
- viability, T/C [30]: 7.28%
- viability, T/C [31]: 8%
- viability, T/C [32]: 7.61%
- viability, T/C [11]: 8.33%
- viability, T/C [33]: 7.59%
- viability, T/C [12]: 7.12%
- viability, T/C [34]: 6.96%
- viability, T/C [35]: 7.9%
- viability, T/C [36]: 7.91%
